The Kd is the concentration at which binding is half-saturated. A low value points to tighter binding.

This experiment deals with T1, Non-receptor tyrosine-protein kinase TYK2 [556-888] (Homo sapiens, UniProt P29597).
T1 construct: 556-888
T1 sequence (P29597 556-888): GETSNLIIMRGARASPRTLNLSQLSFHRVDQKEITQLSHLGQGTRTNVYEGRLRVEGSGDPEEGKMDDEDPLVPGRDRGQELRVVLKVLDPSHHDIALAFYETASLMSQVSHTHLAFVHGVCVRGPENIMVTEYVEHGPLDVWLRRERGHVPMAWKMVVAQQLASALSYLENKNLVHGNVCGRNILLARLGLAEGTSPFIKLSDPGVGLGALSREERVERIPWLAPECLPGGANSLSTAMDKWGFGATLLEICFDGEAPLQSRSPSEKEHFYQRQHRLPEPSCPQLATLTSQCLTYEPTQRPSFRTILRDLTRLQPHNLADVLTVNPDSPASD
Description: TYK2 JH2 Domain Binding Assay. As for the experimental part:
Binding constants for compounds disclosed herein against the JH2 domain are determined by the following protocol for a KINOMEscan assay (DiscoveRx). A fusion protein of a partial length construct of human TYK2 (JH2domain-pseudokinase) (amino acids G556 to D888 based on reference sequence NP 003322.3) and the DNA binding domain of NFkB is expressed in transiently transfected HEK293 cells. From these HEK 293 cells, extracts are prepared in M-PER extraction buffer (Pierce) in the presence of Protease Inhibitor Cocktail Complete (Roche) and Phosphatase Inhibitor Cocktail Set II (Merck) per manufacturers' instructions. The TYK2 (JH2domain-pseudokinase) fusion protein is labeled with a chimeric double-stranded DNA tag containing the NFkB binding site (5′-GGGAATTCCC-3′) fused to an amplicon for qPCR readout, which is added directly to the expression extract (the final concentration of DNA-tag in the binding reaction is 0.1 nM).
In the case of `CNC(=O)c1cnc(N2CCNCC2C)nc1Nc1ccc(C2CC2)nc1` (centres undefined) [US20250257051, Compound 14], binding was put at a Kd of 19 µM. The compound `COc1ccccc1Nc1nc(N2CCCNCC2)ncc1C(N)=O` [US20250257051, Compound 40] showed a Kd of 3.3 µM. Take `CC(C)(C)OC(=O)N1CCCN(c2ncc(C(N)=O)c(Nc3ccccc3S(C)(=O)=O)n2)CC1` [US20250257051, Compound 65]: the affinity, expressed as Kd, was 2.9 µM. `CNC(=O)c1cnc(N2CCCC2)nc1Nc1ccc(C2CC2)nc1` [US20250257051, Compound 10] returned a Kd of 0.37 µM.

Values taken from BindingDB's records for patent US20250257051 (1910 Genetics, 2025).
